Where “and” joins values, the source holds several entries; their conditions need not be identical. Equal entries are not always repeated. After the bases stand the sugars from the 5' end (letter, count) and the backbone: PS all phosphorothioate, else s phosphorothioate and o phosphodiester by linkage. Methylation of C is not given here. k = constrained ethyl (cEt); d = 2'-deoxy (DNA)
molecular target: MALAT1; details: ASO, A431, 0.005 µM

| Sequence | target mRNA inhibition |
| --- | --- |
| ATTCAATACTATTGTC (sugars k3 d10 k3, PS) | 24% |
| CAACACCCGGAAATCG (sugars k3 d10 k3, PS) | 18% |
| CGTATTTATAGACGGA (sugars k3 d10 k3, PS) | -9% |
| CCCTGTTAAGACCATC (sugars k3 d10 k3, PS) | 21% |
| GACTTGCTCCCAAGAC (sugars k3 d10 k3, PS) | 7% |
| ATTCTTTTCTTCGCCT (sugars k3 d10 k3, PS) | 48% |
| CCATGGTTGTCCTACT (sugars k3 d10 k3, PS) | 10% |
| CAAATCCTGATCTGGT (sugars k3 d10 k3, PS) | 24% and 21% |
| AAACTAAATCATTGGG (sugars k3 d10 k3, PS) | 43% |
| GTTACTTGCCAACTTG (sugars k3 d10 k3, PS) | 63% and 81% |
| ATCAGCTTCCGCTAAG (sugars k3 d10 k3, PS) | 4% |
| CTACTCCAAGCATTGG (sugars k3 d10 k3, PS) | 27% |
| TACGAAAGTCCTTCAC (sugars k3 d10 k3, PS) | 35% |
| ATCACTACTCCAAGCA (sugars k3 d10 k3, PS) | 20% |
| TCCTCCGTGTGGTTGC (sugars k3 d10 k3, PS) | 18% |
| CCAGCATTACAGTTCT (sugars k3 d10 k3, PS) | 42% |
| CTTAAAGCACTTCTTG (sugars k3 d10 k3, PS) | -34% |
| TCAGTACGAAACTCCC (sugars k3 d10 k3, PS) | 41% |
| AAAACTCCCCCCCGCC (sugars k3 d10 k3, PS) | -4% |
| GATCATTAAGCCACTT (sugars k3 d10 k3, PS) | 10% |
| TATTTTAAACGGGTCA (sugars k3 d10 k3, PS) | 3% |
| ATGACGCAATTCTCCC (sugars k3 d10 k3, PS) | 15% |
| CAGTCCTAGCTTCATC (sugars k3 d10 k3, PS) | 9% |

| Sequence | target mRNA inhibition |
| --- | --- |
| GGCAAAATGGCGGACT (sugars k3 d10 k3, PS) | -14% |
| GATTATGGATCATGCC (sugars k3 d10 k3, PS) | 47% and 61% |
| CAGCTTATGGAACTTG (sugars k3 d10 k3, PS) | -33% |
| TTGAGGGACAGTAGGT (sugars k3 d10 k3, PS) | 21% |
| CTGACTTTGTATGTAA (sugars k3 d10 k3, PS) | 51% |
| CGTGTGGTTGCCAAGC (sugars k3 d10 k3, PS) | 45% |
| GCCCAGTAGGCCAGAC (sugars k3 d10 k3, PS) | 25% |
| TGCCCAAATTAATGCA (sugars k3 d10 k3, PS) | 29% |
| GTTCAACCCACCAAAG (sugars k3 d10 k3, PS) | 36% |
| TTAGAGAAGAATCCCC (sugars k3 d10 k3, PS) | 31% |
| TTGAGGCAAGTCCTCA (sugars k3 d10 k3, PS) | 3% |
| CTTATCTGTTAACAGC (sugars k3 d10 k3, PS) | 43% |
| AATACTCTTCCAAGGA (sugars k3 d10 k3, PS) | 15% |
| GAAGAAGCTTCATCTC (sugars k3 d10 k3, PS) | 15% |
| TCACCAAATTGCACTC (sugars k3 d10 k3, PS) | 21% |
| TGAGTGTTCCTGCATG (sugars k3 d10 k3, PS) | 36% |
| GTATGACATATAATCT (sugars k3 d10 k3, PS) | 55% and 77% |
| AAAGCGAGTTCAAGTG (sugars k3 d10 k3, PS) | -12% |
| CTGTTTAAGTCACCTT (sugars k3 d10 k3, PS) | 76% and 61% |
| AGAGCATTGGAGATCA (sugars k3 d10 k3, PS) | 20% |
| GTACACCCAGTGGCTC (sugars k3 d10 k3, PS) | 6% |
| GTTAGGTATGAGCTTC (sugars k3 d10 k3, PS) | 15% |
| TGCAAGGTCTCATACA (sugars k3 d10 k3, PS) | 32% |

| Sequence | target mRNA inhibition |
| --- | --- |
| CCTTCGGTGCCTTTAG (sugars k3 d10 k3, PS) | 12% |
| ATACTATTGTCCCATA (sugars k3 d10 k3, PS) | 31% |
| GAGGTATGACATATAA (sugars k3 d10 k3, PS) | 54% and 49% and 50% |
| AAGTCAAGCTCCTGAC (sugars k3 d10 k3, PS) | 4% |
| TAGAGGGCCTCTATTG (sugars k3 d10 k3, PS) | 39% |
| GCTGTCTTCCTAGATT (sugars k3 d10 k3, PS) | 36% |
| CCAGGATTAATGTAGT (sugars k3 d10 k3, PS) | 71% and 55% |
| TTTACAGAAGTCTCGG (sugars k3 d10 k3, PS) | -31% |
| ACACACTACCATATCC (sugars k3 d10 k3, PS) | -3% |
| CTTCTGATAACGAAGA (sugars k3 d10 k3, PS) | -5% |
| GCAAGTCCTCATTACT (sugars k3 d10 k3, PS) | 50% and 30% |
| ATCAGTAGTAAGAATC (sugars k3 d10 k3, PS) | 23% |
| TCACGGATTTTTACCA (sugars k3 d10 k3, PS) | 28% |
| ACGGATTTTTACCAAC (sugars k3 d10 k3, PS) | 34% |
| AAGAGATACCTGTCTG (sugars k3 d10 k3, PS) | 22% |
| TAGGATCCTCTACGCA (sugars k3 d10 k3, PS) | 23% |
| CTTAGTTGGCATCAAG (sugars k3 d10 k3, PS) | 31% |
| CCTAGCTTCACCACCA (sugars k3 d10 k3, PS) | 33% |
| TGTAAAACATTGCCTA (sugars k3 d10 k3, PS) | -7% |
| TGCGCTGGCTGCCTCA (sugars k3 d10 k3, PS) | 25% |
| AACTTCAACATTTGGC (sugars k3 d10 k3, PS) | 56% |
| CCACCAATCCCAACCG (sugars k3 d10 k3, PS) | 26% |
| AATTTCCTTAGTTGGC (sugars k3 d10 k3, PS) | 68% and 93% |

| Sequence | target mRNA inhibition |
| --- | --- |
| GATTAGAGAAGAATCC (sugars k3 d10 k3, PS) | 14% |
| TGAATTACTTCCGTTA (sugars k3 d10 k3, PS) | 36% |
| TAAATAAGGAGACAGC (sugars k3 d10 k3, PS) | 38% |
| AGATTAAAGTGTGATA (sugars k3 d10 k3, PS) | 27% |
| AAACGAATTCAGGGTG (sugars k3 d10 k3, PS) | 23% |
| CCTAACATGCAATACT (sugars k3 d10 k3, PS) | 12% |
| AAATAAGCACTTATCC (sugars k3 d10 k3, PS) | 18% |
| GGAAAGCGAGTTCAAG (sugars k3 d10 k3, PS) | 24% |
| TACTGAAGAGCATTGG (sugars k3 d10 k3, PS) | 71% |
| TCTAACATAGTTCAAC (sugars k3 d10 k3, PS) | 29% |
| GAACTAGTGGTTCCCA (sugars k3 d10 k3, PS) | 46% |
| CACCTTCGGTTTAATC (sugars k3 d10 k3, PS) | 20% |
| AGACCAACTAAGCGAA (sugars k3 d10 k3, PS) | 38% |
| ATGAAATGCCTCTGCA (sugars k3 d10 k3, PS) | 13% |
| GAACAGTACTGCATTT (sugars k3 d10 k3, PS) | 28% |
| GAAAGCGAGTTCAAGT (sugars k3 d10 k3, PS) | -1% |
| AGGTCATCTATTCACA (sugars k3 d10 k3, PS) | 39% |
| GCTACAACAAGTAAGC (sugars k3 d10 k3, PS) | 9% |
| CACTTATCCCTAACAT (sugars k3 d10 k3, PS) | 10% |
| GGCCAGCCTATAAGGA (sugars k3 d10 k3, PS) | 6% |
| TCACTGCAAGGTCTCA (sugars k3 d10 k3, PS) | 48% |
| TAACCAACTTCCCCTT (sugars k3 d10 k3, PS) | 16% |
| TTGCCCCTCCCCTTTA (sugars k3 d10 k3, PS) | 42% |

| Sequence | target mRNA inhibition |
| --- | --- |
| CTTTACACCTCAGTAC (sugars k3 d10 k3, PS) | 38% |
| TACCGCACAGCTCGGG (sugars k3 d10 k3, PS) | 20% |
| AAAAACTTATCTGCGG (sugars k3 d10 k3, PS) | 49% |
| CGCCTGCTACCTTCAT (sugars k3 d10 k3, PS) | 30% |
| TTAAATTGATGGGCTT (sugars k3 d10 k3, PS) | 22% |
| AGCATTGGAGATCAGC (sugars k3 d10 k3, PS) | 36% |
| CTCCATGGTTGTCCTA (sugars k3 d10 k3, PS) | 39% |
| AACTCCCCCCCGCCTC (sugars k3 d10 k3, PS) | 6% |
| AGAGAACCACACACTA (sugars k3 d10 k3, PS) | 28% |
| ATCTTAACTCAAAGTC (sugars k3 d10 k3, PS) | 39% |
| CCCCAACTAAACATAC (sugars k3 d10 k3, PS) | 26% |
| TCCTTCTATAGTCTGA (sugars k3 d10 k3, PS) | 14% |
| TCACCGGAATTCGATC (sugars k3 d10 k3, PS) | -263% |
| CACCTTCCGCCGCCTC (sugars k3 d10 k3, PS) | 28% |
| TCTTCGGTTAAAAATA (sugars k3 d10 k3, PS) | 19% |
| CTGGGTCAGCTGTCAA (sugars k3 d10 k3, PS) | 33% |
| TATACTTCTCCAATAC (sugars k3 d10 k3, PS) | 18% |
| CCGACCTCACGGATTT (sugars k3 d10 k3, PS) | 39% |
| TAATGTAGTGTAACAT (sugars k3 d10 k3, PS) | 29% |
| AGGCGAGCTGAGGCTT (sugars k3 d10 k3, PS) | 19% |
| AGCGAATGGCTTTGTC (sugars k3 d10 k3, PS) | 5% |
| TTCCTTATTTAGAGGG (sugars k3 d10 k3, PS) | 14% |
